# Assays:
# [1] = target: T1, cannabinoid receptor 1 (CB1) (Homo sapiens, UniProt P21554); assay: cell-based GPCR cAMP modulation assay, […] doses; conditions: read-out: half-maximal effective concentration
# T1 construct: gene CNR1; full-length receptor expected in commercial panel cell line (Eurofins/DiscoverX SafetyScan47)
# [2] = target: T2, serotonin 1B receptor (5-HT1B) (Homo sapiens, UniProt P28222); assay: cell-based SafetyScan47 dose-response assay, […] doses; conditions: read-out: half-maximal effective concentration
# T2 construct: gene HTR1B; full-length receptor expected in commercial panel cell line (Eurofins/DiscoverX SafetyScan47)
# T2 sequence (P28222 whole entry): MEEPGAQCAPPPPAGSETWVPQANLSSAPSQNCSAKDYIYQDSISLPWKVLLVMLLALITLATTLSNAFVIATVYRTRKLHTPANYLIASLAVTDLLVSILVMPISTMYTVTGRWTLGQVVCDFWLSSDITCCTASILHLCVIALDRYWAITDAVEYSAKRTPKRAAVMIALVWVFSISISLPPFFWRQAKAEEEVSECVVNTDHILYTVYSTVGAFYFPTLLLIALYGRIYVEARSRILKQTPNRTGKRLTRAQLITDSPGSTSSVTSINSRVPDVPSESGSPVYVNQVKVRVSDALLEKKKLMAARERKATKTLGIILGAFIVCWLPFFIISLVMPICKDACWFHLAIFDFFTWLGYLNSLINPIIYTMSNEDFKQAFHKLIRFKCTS
# [3] = target: T3, histamine H1 receptor (H1R) (Homo sapiens, UniProt P35367); assay: as above; conditions: read-out: half-maximal inhibitory concentration
# T3 construct: gene HRH1; full-length receptor expected in commercial panel cell line (Eurofins/DiscoverX SafetyScan47)
# T3 sequence (P35367 whole entry): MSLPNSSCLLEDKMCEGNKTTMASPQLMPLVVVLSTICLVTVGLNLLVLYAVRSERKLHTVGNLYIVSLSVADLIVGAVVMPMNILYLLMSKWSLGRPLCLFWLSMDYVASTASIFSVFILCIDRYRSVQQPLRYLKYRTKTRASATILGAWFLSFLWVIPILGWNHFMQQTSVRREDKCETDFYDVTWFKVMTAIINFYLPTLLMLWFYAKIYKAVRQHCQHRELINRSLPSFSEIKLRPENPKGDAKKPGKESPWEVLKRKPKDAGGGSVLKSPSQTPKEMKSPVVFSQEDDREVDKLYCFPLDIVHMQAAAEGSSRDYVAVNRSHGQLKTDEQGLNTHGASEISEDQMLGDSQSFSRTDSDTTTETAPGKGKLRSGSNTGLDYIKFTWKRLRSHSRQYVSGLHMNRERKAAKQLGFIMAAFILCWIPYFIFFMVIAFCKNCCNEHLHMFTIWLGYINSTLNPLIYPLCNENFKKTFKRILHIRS
# [4] = target: T4, histamine H2 receptor (H2R) (Homo sapiens, UniProt P25021); assay: as above; conditions: read-out: half-maximal inhibitory concentration
# T4 construct: gene HRH2; full-length receptor expected in commercial panel cell line (Eurofins/DiscoverX SafetyScan47)
# T4 sequence (P25021 whole entry): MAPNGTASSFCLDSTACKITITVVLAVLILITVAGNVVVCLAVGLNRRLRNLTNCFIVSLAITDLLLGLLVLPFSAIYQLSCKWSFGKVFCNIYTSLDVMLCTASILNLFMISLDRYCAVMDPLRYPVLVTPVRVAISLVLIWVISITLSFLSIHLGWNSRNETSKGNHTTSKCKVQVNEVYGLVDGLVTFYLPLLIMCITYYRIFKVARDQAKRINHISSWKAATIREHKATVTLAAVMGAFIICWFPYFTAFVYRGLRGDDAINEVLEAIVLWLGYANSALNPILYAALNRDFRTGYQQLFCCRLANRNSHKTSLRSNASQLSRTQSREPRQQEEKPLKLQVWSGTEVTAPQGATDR
# [5] = target: T5, cannabinoid receptor 2 (CB2) (Homo sapiens, UniProt P34972); assay: cell-based GPCR cAMP modulation assay, […] doses; conditions: read-out: half-maximal effective concentration
# T5 construct: gene CNR2; full-length receptor expected in commercial panel cell line (Eurofins/DiscoverX SafetyScan47)
# T5 sequence (P34972 whole entry): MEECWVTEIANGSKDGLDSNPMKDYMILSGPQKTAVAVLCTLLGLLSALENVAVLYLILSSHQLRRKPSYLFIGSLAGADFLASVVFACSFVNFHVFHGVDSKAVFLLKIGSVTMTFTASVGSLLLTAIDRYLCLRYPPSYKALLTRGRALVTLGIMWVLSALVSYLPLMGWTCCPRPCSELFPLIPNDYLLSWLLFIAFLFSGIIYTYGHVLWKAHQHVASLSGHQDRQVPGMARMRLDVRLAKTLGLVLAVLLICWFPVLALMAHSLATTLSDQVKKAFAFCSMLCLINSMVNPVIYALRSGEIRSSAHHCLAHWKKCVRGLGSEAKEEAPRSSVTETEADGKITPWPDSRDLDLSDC
# [6] = target: T6, serotonin 1A receptor (5-HT1A) (Homo sapiens, UniProt P08908); assay: cell-based SafetyScan47 dose-response assay, […] doses; conditions: read-out: half-maximal effective concentration
# T6 construct: gene HTR1A; full-length receptor expected in commercial panel cell line (Eurofins/DiscoverX SafetyScan47)
# T6 sequence (P08908 whole entry): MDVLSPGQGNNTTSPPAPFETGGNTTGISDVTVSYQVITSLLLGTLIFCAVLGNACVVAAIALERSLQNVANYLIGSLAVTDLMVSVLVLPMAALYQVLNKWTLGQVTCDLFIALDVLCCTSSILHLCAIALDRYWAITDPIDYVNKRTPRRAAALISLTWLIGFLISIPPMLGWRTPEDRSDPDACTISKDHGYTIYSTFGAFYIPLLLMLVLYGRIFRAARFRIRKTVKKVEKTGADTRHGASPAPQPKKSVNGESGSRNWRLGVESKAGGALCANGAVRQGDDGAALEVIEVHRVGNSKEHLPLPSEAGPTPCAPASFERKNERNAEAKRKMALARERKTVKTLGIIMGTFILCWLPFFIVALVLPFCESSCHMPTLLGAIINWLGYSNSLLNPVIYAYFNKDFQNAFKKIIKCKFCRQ
# T1 sequence (P21554 whole entry): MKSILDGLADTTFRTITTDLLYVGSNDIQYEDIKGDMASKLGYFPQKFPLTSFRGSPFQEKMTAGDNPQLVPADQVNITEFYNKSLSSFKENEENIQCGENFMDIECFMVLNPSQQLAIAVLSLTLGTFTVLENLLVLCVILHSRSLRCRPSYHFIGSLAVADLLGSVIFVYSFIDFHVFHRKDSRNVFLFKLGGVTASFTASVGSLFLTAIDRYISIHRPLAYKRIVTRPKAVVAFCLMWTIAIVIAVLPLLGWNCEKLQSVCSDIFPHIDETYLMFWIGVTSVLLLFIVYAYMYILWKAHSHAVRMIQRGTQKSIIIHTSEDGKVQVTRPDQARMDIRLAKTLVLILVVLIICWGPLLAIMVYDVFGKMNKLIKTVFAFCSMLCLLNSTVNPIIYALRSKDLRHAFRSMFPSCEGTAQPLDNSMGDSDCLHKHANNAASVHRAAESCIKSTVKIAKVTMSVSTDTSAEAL
smiles,measurement,setting,value
CCCCCCCCCCCCCCC(=O)O[C@H](CC(=O)[O-])C[N+](C)(C)C [pentadecanoylcarnitine],EC50,[1],3.7 µM
same,EC50,[2],9.3 µM
same,IC50,[3],10.9 µM
same,IC50,[4],6.1 µM
same,EC50,[5],3.2 µM
same,EC50,[6],9.6 µM
